# Measured values published in patent publication US9035056B2, “Pyrido[4,3-b]indole and pyrido[3,4-b]indole derivatives and methods of use” (Medivation Technologies, Inc., priority 2011, dated 2015).
# Key:
# [1] = molecular target: T1, rat adrenergic α1B receptor (Rattus norvegicus, UniProt P15823); assay: Adrenergic α1B radioligand binding ([3H]Prazosin); conditions: 0.1 μM compound; 0.1 µM
# T1 construct: rat adrenergic α1B receptor obtained from Wistar Rat liver; from tissue; host or cells: Wistar rat liver
# T1 sequence (P15823 1-515): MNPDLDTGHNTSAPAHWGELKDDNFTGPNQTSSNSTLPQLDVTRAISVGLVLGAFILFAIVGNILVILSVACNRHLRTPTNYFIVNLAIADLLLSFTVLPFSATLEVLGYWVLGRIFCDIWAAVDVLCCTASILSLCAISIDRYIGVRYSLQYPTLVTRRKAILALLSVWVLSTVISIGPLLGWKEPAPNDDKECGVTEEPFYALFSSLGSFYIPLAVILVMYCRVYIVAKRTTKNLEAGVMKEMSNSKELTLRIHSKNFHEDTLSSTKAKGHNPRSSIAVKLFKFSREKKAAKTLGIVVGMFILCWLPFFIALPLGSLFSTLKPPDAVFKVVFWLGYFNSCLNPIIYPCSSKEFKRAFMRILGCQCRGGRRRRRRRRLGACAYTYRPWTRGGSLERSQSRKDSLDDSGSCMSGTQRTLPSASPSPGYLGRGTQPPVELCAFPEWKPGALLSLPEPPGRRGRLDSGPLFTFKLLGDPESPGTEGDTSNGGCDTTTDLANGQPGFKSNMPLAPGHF
# Experimental: To evaluate in radioligand binding assays the activity of compounds of the invention, rat adrenergic α1B receptor obtained from Wistar Rat liver (Garcia-S'ainz, J. et al, Biochem. Biophys. Res. Commun. 186:760, 1992; Michel, A. et al, Br. J. Pharmacol. 98:883, 1989) in a modified Tris-HCl buffer (50 mM Tris-HCl buffer, pH 7.4, 0.5 mM EDTA) was used. Compounds of the invention were incubated with 0.25 nM [^3H]Prazosin for 60 min at 25° C. Non-specific binding was estimated in the presence of 10 μM phentolamine. Receptor proteins were filtered and washed, the filters were then counted to determine [^3H]Prazosin specifically bound. Compounds were screened at 1 μM or lower, using 1% DMSO as vehicle. Biochemical assay results are presented as the percent inhibition of specific binding in Table 3.
# [2] = molecular target: T2, human recombinant adrenergic α2A receptor (Homo sapiens, UniProt P08913); assay: Adrenergic α2A radioligand binding ([3H]MK-912); conditions: 0.1 μM compound; 0.1 µM
# T2 construct: expressed in transfected cells; host or cells: insect Sf9 cells
# T2 sequence (P08913 1-465): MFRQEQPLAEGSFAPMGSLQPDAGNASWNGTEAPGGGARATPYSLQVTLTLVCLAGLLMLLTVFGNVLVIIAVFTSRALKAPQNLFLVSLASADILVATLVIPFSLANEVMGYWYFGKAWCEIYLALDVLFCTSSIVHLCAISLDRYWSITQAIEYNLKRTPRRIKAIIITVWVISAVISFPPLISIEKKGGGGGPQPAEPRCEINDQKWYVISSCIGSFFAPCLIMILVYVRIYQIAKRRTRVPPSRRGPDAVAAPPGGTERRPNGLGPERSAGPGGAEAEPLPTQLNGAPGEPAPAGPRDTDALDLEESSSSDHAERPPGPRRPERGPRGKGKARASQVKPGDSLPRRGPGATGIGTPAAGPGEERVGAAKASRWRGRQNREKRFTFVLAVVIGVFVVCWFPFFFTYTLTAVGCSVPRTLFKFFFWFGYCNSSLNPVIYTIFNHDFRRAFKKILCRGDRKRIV
# Experimental: To evaluate in radioligand binding assays the activity of compounds of the invention, human recombinant adrenergic α2A receptor expressed in insect Sf9 cells (Uhlen, S. et al, J. Pharmacol. Exp. Ther. 271:1558, 1994) in a modified Tris-HCl buffer (50 mM Tris-HCl, pH 7.4, 12.5 mM MgCl2, 2 mM EDTA) was used. Compounds of invention were incubated with 1 nM [^3H]MK-912 for 60 min at 25° C. MK-912 is (2S-trans)-1,3,4,5′,6,6′,7,12b-octahydro-1′,3′-dimethyl-spiro[2H-benzofuro[2,3-a]quinolizine-2,4′(1′H)-pyrimidin]-2′(3′H)-one hydrochloride Non-specific binding was estimated in the presence of 10 μM WB-4101 (2-(2,6-Dimethoxyphenoxyethyl)aminomethyl-1,4-benzodioxane hydrochloride). Receptor proteins were filtered and washed, the filters were then counted to determine [^3H]MK-912 specifically bound. Compounds were screened at 1 μM or lower, using 1% DMSO as vehicle. Biochemical assay results are presented as the percent inhibition of specific binding in Table 3.
# [3] = molecular target: T3, human recombinant adrenergic α2B receptor (Homo sapiens, UniProt P18089); assay: Adrenergic α2B radioligand binding ([3H]Rauwolscine); conditions: 0.03 μM compound; 0.03 µM
# T3 construct: expressed in transfected cells; host or cells: CHO-K1
# T3 sequence (P18089 1-450): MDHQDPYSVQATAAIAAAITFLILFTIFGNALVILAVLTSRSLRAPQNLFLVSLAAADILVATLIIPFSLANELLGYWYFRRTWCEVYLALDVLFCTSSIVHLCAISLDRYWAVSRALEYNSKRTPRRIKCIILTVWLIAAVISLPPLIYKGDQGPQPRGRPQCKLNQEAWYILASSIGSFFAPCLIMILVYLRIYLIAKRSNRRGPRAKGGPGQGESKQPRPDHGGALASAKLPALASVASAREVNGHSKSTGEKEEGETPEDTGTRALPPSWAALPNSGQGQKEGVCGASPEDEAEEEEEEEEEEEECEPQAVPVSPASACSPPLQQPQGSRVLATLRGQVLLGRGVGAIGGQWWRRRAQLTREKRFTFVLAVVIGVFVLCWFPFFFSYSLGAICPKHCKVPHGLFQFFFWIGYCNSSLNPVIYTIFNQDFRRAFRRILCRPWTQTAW
# Experimental: To evaluate in radioligand binding assays the activity of compounds of the invention, human recombinant adrenergic α2B receptor expressed in Chinese hamster ovary (CHO) K1 cells (Uhlen, S. et al, Eur. J. Pharmacol. 343(1):93, 1998) in a modified Tris-HCl buffer (50 mM Tris-HCl, pH 7.4, 12.5 mM MgCl2, 1 mM EDTA, 0.2% BSA) was used. Compounds of the invention were incubated with 2.5 nM [^3H]Rauwolscine for 60 min at 25° C. Non-specific binding was estimated in the presence of 10 μM Prazosin. Receptor proteins were filtered and washed, the filters were then counted to determine [^3H]Rauwolscine specifically bound. Compounds were screened at 1 μM or lower, using 1% DMSO as vehicle. Biochemical assay results are presented as the percent inhibition of specific binding in Table 3.
# [4] = molecular target: T4, human recombinant histamine H1 receptor (Homo sapiens, UniProt P35367); assay: Histamine H1 radioligand binding ([3H]Pyrilamine); conditions: 0.1 μM compound; 0.1 µM
# T4 construct: expressed in transfected cells; host or cells: CHO-K1
# T4 sequence (P35367 whole entry): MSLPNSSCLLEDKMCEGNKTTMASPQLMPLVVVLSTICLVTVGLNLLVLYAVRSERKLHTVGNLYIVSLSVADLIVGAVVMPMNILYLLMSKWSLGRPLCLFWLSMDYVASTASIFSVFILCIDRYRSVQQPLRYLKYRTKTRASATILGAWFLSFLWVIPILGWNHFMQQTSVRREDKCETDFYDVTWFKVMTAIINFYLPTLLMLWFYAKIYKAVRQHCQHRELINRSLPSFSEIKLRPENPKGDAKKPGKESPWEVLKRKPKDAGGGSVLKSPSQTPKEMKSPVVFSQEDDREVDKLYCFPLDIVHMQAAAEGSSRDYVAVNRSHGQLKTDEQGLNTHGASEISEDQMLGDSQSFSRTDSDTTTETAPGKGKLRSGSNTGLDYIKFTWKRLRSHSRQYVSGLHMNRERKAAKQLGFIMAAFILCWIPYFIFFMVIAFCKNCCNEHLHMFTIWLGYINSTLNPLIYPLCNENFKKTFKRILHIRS
# Experimental: To evaluate in radioligand binding assays the activity of compounds of the invention, human recombinant histamine H1 receptor expressed in Chinese hamster ovary (CHO) K1 cells (De Backer, M. et al, Biochem. Biophys. Res. Comm. 197(3):1601, 1993) in a modified Tris-HCl buffer (50 mM Tris-HCl, pH 7.4, 2 mM MgCl2, 100 mM NaCl, 250 mM Sucrose) was used. Compounds of the invention were incubated with 1.2 nM [^3H]Pyrilamine for 180 min at 25° C. Non-specific binding was estimated in the presence of 1 μM Pyrilamine. Receptor proteins were filtered and washed, the filters were then counted to determine [^3H]Pyrilamine specifically bound. Compounds were screened at 1 μM or lower, using 1% DMSO as vehicle. Biochemical assay results are presented as the percent inhibition of specific binding in Table 3.
Structure (SMILES),"Percentage inhibition of ligand binding, Adrenergic α1B [1] [%]","Percentage inhibition of ligand binding, Adrenergic α2A [2] [%]","Percentage inhibition of ligand binding, Adrenergic α2B [3] [%]",Binding data (Percentage inhibition) Histamine H1 (0.1 μM) [4] [%]
"Cc1ccc2c(c1)c1c(n2CC2(O)CCCc3ccncc32)CCN(C)C1 (single isomer, unassigned) [ii-113b]",82,8,68,6
"Cc1ccc2c(c1)c1c(n2CC2(O)CCc3ccccc32)CCN(C)C1 (single isomer, unassigned) [ii-111a]",94,45,76,–
"Cc1ccc2c(c1)c1c(n2CC2(O)CCc3ccccc32)CCN(C)C1 (single isomer, unassigned) [ii-111b]",51,22,0,–
